This note sets out measurements from PubChem BioAssay AID602483 (Southern Research Specialized Biocontainment Screening …, 2012).

Experiment [1] can be described thus: viability of HEp-2 cells – cell-based, set 1, cytotoxicity control, dose response (AID 602483). Conditions: HEp-2 cell viability, cytotoxicity; at 50 µM (top of the series).
In experiment [2] the test system is HEp-2 cell viability, cytotoxicity. The experiment is described as above.

Structures are written as SMILES. Calls of active or inactive are those of the source. How the calls were made is not given here.

On to `CN1CCN(Cc2nc3ccc([N+](=O)[O-])cc3c(=O)n2-c2ccccc2F)CC1`, for which, in experiment [1], the viability was 70.1% (inactive). Same read-out and setting: then `CCN1CCN(Cc2nc3ccc([N+](=O)[O-])cc3c(=O)n2-c2ccccc2F)CC1`, with 72.6% (inactive). With `CN(C(=O)Cc1cccs1)c1nc2c(s1)CCCC2`, the CC50 in experiment [2] was 5.67 µM.

The viability is a read-out of living cells in per cent, often relative to untreated cells. As a reminder, the CC50 is the concentration at which the toxic effect on the cells reaches its halfway point.
